Experimental data taken from ChEMBL document CHEMBL1129284, “N-methyl-D-aspartic acid receptor agonists: resolution, absolute stereochemistry, and pharmacology of the enantiomers of 2-amino-2-(3-hydroxy-5-methyl-4-isoxazolyl)acetic acid” (J Med Chem, 1996).
pEC50, pIC50: −log10 of the molar value.

Legend:
[1] = species: Rattus norvegicus; test: Effective dose against rat cortical slice cells using Electrophysiological experiment.; assay type: functional; conditions: read-out: ED50 (the source's name)
[2] = target: Glutamate receptor ionotropic, AMPA (Rattus norvegicus, UniProt P19490+P19491+P19492+P19493); test: Inhibitory activity against Ionotropic glutamate receptor AMPA using [3H]AMPA as radioligand; assay type: protein-complex assay
[3] = target: Glutamate receptor ionotropic, kainate; test: Inhibitory activity against Ionotropic glutamate receptor kainate using [3H]-kainic acid as radioligand; assay type: protein-complex assay
[4] = target: Glutamate NMDA receptor; test: Inhibitory activity against N-methyl-D-aspartate glutamate receptor using [3H]CPP as radioligand; assay type: protein-complex assay

Row | Compound | pEC50 [1] | pIC50 [2] | pIC50 [3] | pIC50 [4]
1 | NC(C(=O)O)c1cc(=O)[nH]o1 (stereo not given) | 5.42 | 4.12 | < 4.00 | < 4.00
2 | Cc1onc(O)c1[C@@H](N)C(=O)O | 5.14 | 4.14 | < 4.00 | 5.43
3 | Cc1onc(O)c1C[C@H](N)C(=O)O [(S)-AMPA] | 3.24 | – | – | –
4 | CN[C@H](CC(=O)O)C(=O)O [N-METHYL-D-ASPARTIC ACID (NMDA)] | 4.82 | < 4.00 | < 4.00 | 4.46

Further lines, results first:

Row | pEC50 [1] | pIC50 [2] | pIC50 [3] | pIC50 [4] | Compound
5 | 4.92 | < 4.00 | < 4.00 | – | Cc1o[nH]c(=O)c1C(N)C(=O)O (stereo not given)
6 | 4.12 | < 4.00 | < 4.00 | 4.21 | Cc1onc(O)c1[C@H](N)C(=O)O
